Data reported in article PMC6008465 (British Journal of Cancer, 2018).
Marks after values point to notes of the source that are not given here.

Assays:
[1] = system: IL-8; set-up: IC50 for inhibition of spontaneous secretion of IL-8: unit not given here; conditions: quoted in discussion, no reference given, cited from earlier work
[2] = system: advanced solid tumours; experiment: Part A tumour response (RECIST 1.0); format: in vivo, human
Method: The primary objectives of this phase 1 study were to evaluate the safety, tolerability, and MTD of once-weekly (Schedule I) and twice-weekly (Schedule II) dosing. […] Toxicity was managed by dose interruption, reduction, and/or discontinuation. Only Cycle 1 adverse events (AEs) were evaluable as DLTs. […] All ongoing patients could continue at 320 mg/m^2, regardless of initial starting dose.
Efficacy was assessed by tumour response determined by investigator review of computed tomography/magnetic resonance imaging scans using Response Evaluation Criteria in Solid tumours version 1.0 (RECIST).[17]

[3] = system: IL-6; conditions: quoted in discussion, no reference given, cited from earlier work
[4] = Part B pharmacokinetics by BRAF genotype; format: in vivo, human; conditions: Part B dose-expansion, by dose and genotype
Method: In Part A, blood was collected on Cycle 1, Days 1 and 15 at specified intervals prior to, during, and postinfusion (5 min–8 h), and on Days 2, 3, 16, and 17 (24 and 48 h postinfusion). Urine was collected on Cycle 1, Day 1 preinfusion, at 0–8 h, and 8–24 h. In Part B, blood was collected on Cycle 1, Day 1, prior to, during, and at 1–24 h postinfusion. Pharmacokinetic parameters were calculated using noncompartmental analysis.

[5] = system: MEK1; conditions: preclinical models; cited from earlier work
[6] = system: phosphor-ERK levels; conditions: quoted in discussion, no reference given; read-out: IC50 for inhibition of phosphor-ERK levels; cited from earlier work
[7] = system: patients with advanced solid tumours, including melanoma; experiment: Phase 1 study overall (Parts A and B): safety; format: in vivo, human
Method: Safety was assessed by monitoring AEs, serious AEs (SAEs), laboratory parameters, vital signs, 12-lead electrocardiograms (ECGs), Eastern Cooperative Oncology Group performance status, and symptom-directed physical and neurologic examination findings. AEs were graded by investigators based on the National Cancer Institute Common Terminology Criteria for Adverse Events, version 3.[16]

CCNc1cc(O)c2c(c1)/C=C/C[C@H](O)[C@H](O)C(=O)/C=C\[C@@H](C)[C@H](C)OC2=O [E6201, (3S,4R,5Z,8S,9S,11E)-14-(ethylamino)-8,9,16-trihydroxy-3,4-dimethyl-3,4,9,19-tetrahydro-1H-2-benzoxacyclotetradecine-1,7 (8H)-dione]
IC50 for inhibition of spontaneous secretion of IL-8 [1]: 8.19
IC50 ([1]; read-out: IC50 for inhibition of spontaneous secretion of IL-8): 21.8 nM
Best overall response: Complete response (CR) ([2]; 20 mg/m^2 (n=4)): 0 n (%)
Best overall response: Not evaluable (NE) ([2]; 20 mg/m^2 (n=4)): 0 n (%)
Best overall response: Partial response (PR) ([2]; 20 mg/m^2 (n=4)): 0 n (%)
Best overall response: Progressive disease (PD) ([2]; 20 mg/m^2 (n=4)): 3 (75.0) n (%)
Disease control rate (CR+PR+SD) ([2]; 20 mg/m^2 (n=4)): 1 (25.0) n (%)
Overall response rate (CR+PR) ([2]; 20 mg/m^2 (n=4)): 0 n (%)
Best overall response: Complete response (CR) ([2]; 40 mg/m^2 (n=3)): 0 n (%)
Best overall response: Not evaluable (NE) ([2]; 40 mg/m^2 (n=3)): 0 n (%)
Best overall response: Partial response (PR) ([2]; 40 mg/m^2 (n=3)): 0 n (%)
Best overall response: Progressive disease (PD) ([2]; 40 mg/m^2 (n=3)): 1 (33.3) n (%)
Disease control rate (CR+PR+SD) ([2]; 40 mg/m^2 (n=3)): 2 (66.7) n (%)
Overall response rate (CR+PR) ([2]; 40 mg/m^2 (n=3)): 0 n (%)
Duration of SD ([2]; 40 mg/m^2, patient with biliary duct cancer (BRAF-WT)): 4 cycles
Duration of SD ([2]; 40 mg/m^2, patient with colon cancer (BRAF-WT)): 6 cycles
Best overall response: Complete response (CR) ([2]; 80 mg/m^2 (n=3)): 0 n (%)
Best overall response: Not evaluable (NE) ([2]; 80 mg/m^2 (n=3)): 0 n (%)
Best overall response: Partial response (PR) ([2]; 80 mg/m^2 (n=3)): 0 n (%)
Best overall response: Progressive disease (PD) ([2]; 80 mg/m^2 (n=3)): 2 (66.7) n (%)
Disease control rate (CR+PR+SD) ([2]; 80 mg/m^2 (n=3)): 1 (33.3) n (%)
Overall response rate (CR+PR) ([2]; 80 mg/m^2 (n=3)): 0 n (%)
Duration of SD ([2]; 80 mg/m^2, patient with BRAF-WT uveal melanoma): 15 cycles
Best overall response: Complete response (CR) ([2]; 160 mg/m^2 (n=3)): 0 n (%)
Best overall response: Not evaluable (NE) ([2]; 160 mg/m^2 (n=3)): 1 (33.3) n (%)
Best overall response: Partial response (PR) ([2]; 160 mg/m^2 (n=3)): 0 n (%)
Best overall response: Progressive disease (PD) ([2]; 160 mg/m^2 (n=3)): 2 (66.7) n (%)
Disease control rate (CR+PR+SD) ([2]; 160 mg/m^2 (n=3)): 0 n (%)
Overall response rate (CR+PR) ([2]; 160 mg/m^2 (n=3)): 0 n (%)
Best overall response: Complete response (CR) ([2]; 320 mg/m^2 (n=7)): 0 n (%)
Best overall response: Not evaluable (NE) ([2]; 320 mg/m^2 (n=7)): 1 (14.3) n (%)
Best overall response: Partial response (PR) ([2]; 320 mg/m^2 (n=7)): 0 n (%)
Best overall response: Progressive disease (PD) ([2]; 320 mg/m^2 (n=7)): 4 (57.1) n (%)
Disease control rate (CR+PR+SD) ([2]; 320 mg/m^2 (n=7)): 1 (14.3) n (%)
Overall response rate (CR+PR) ([2]; 320 mg/m^2 (n=7)): 0 n (%)
Best overall response: Complete response (CR) ([2]; 400 mg/m^2 (n=1)): 0 n (%)
Best overall response: Not evaluable (NE) ([2]; 400 mg/m^2 (n=1)): 0 n (%)
Best overall response: Partial response (PR) ([2]; 400 mg/m^2 (n=1)): 0 n (%)
Best overall response: Progressive disease (PD) ([2]; 400 mg/m^2 (n=1)): 0 n (%)
Disease control rate (CR+PR+SD) ([2]; 400 mg/m^2 (n=1)): 1 (100) n (%)
Overall response rate (CR+PR) ([2]; 400 mg/m^2 (n=1)): 0 n (%)
Duration of SD ([2]; 400 mg/m^2, patient with gastric carcinoid (BRAF status unknown)): 4 cycles
Best overall response: Complete response (CR) ([2]; 480 mg/m^2 (n=4)): 0 n (%)
Best overall response: Not evaluable (NE) ([2]; 480 mg/m^2 (n=4)): 0 n (%)
Best overall response: Partial response (PR) ([2]; 480 mg/m^2 (n=4)): 1 (25.0)^a n (%)
Best overall response: Progressive disease (PD) ([2]; 480 mg/m^2 (n=4)): 0 n (%)
Disease control rate (CR+PR+SD) ([2]; 480 mg/m^2 (n=4)): 3 (75.0) n (%)
Overall response rate (CR+PR) ([2]; 480 mg/m^2 (n=4)): 1 (25.0) n (%)
Duration of SD ([2]; 480 mg/m^2, patient with papillary thyroid cancer (BRAF-WT)): 4 cycles
Duration of partial response ([2]; BRAF-mutated papillary thyroid cancer patient, 480 mg/m^2): 4 cycles
Best overall response: Complete response (CR) ([2]; Total (N=25)): 0 n (%)
Best overall response: Not evaluable (NE) ([2]; Total (N=25)): 2 (8.0) n (%)
Best overall response: Partial response (PR) ([2]; Total (N=25)): 1 (4.0) n (%)
Best overall response: Progressive disease (PD) ([2]; Total (N=25)): 12 (48.0) n (%)
Disease control rate (CR+PR+SD) ([2]; Total (N=25)): 9 (36.0) n (%)
Overall response rate (CR+PR) ([2]; Total (N=25)): 1 (4.0) n (%)
Number of partial responses (PR) ([2]; V600E BRAF-mutated papillary thyroid cancer, 480 mg/m^2 qw): One
Patients with SD for ≥4 cycles (3.7 months) ([2]; five patients): 20.0%
IC50 for inhibition of spontaneous secretion of IL-6 [3]: 4.09 ng/mL
IC50 ([3]; read-out: IC50 for inhibition of spontaneous secretion of IL-6): 10.5 nM
Effect of BRAF mutation on PK properties [4]: no effect
Time after dosing at which MEK1 inhibition occurred [5]: 8 h
Time postdose for which MEK1 inhibition was sustained [5]: 72 h
IC50 [6]: 2.08 nM
Patients who died during the study ([7]; Parts A and B): Four
AEs of cardiomyopathy ([7]; during the study): no reported AEs of cardiomyopathy
New skin cancers ([7]; during the study): No new skin cancers were reported
